{
  "source": "BindingDB's records for aid1799744",
  "about": "(Csar, 2012)",
  "note": "“And” between values parts separate entries of the source, which are not always exact repeats. Equal values may be shown once.",
  "data": [
    {"target": "Mitogen-activated protein kinase 1 (Homo sapiens, UniProt P28482)", "sequence (P28482 whole entry)": "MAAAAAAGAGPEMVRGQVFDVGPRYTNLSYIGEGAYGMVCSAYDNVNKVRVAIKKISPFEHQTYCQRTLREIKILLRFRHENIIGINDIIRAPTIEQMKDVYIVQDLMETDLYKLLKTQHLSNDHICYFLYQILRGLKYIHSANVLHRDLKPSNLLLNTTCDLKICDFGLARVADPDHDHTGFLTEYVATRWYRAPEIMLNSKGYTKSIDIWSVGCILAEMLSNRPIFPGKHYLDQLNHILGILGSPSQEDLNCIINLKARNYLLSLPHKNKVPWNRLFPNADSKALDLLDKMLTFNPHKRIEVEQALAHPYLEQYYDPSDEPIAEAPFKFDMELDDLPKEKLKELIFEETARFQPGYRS", "test": "Assay 1", "values": [
      {"smiles": "CCN1CCC[C@H]1CNc1ncc(C)c(-c2c[nH]c(C(=O)N[C@H](CO)c3ccccc3)c2)n1", "note": "[erk000530]", "Ki": "0.11 µM and 0.06 µM"},
      {"smiles": "Cc1cnc(N[C@H]2CCCC[C@H]2O)nc1-c1c[nH]c(C(=O)N[C@H](CO)c2ccccc2)c1", "note": "[erk000465]", "Ki": "0.007 µM"},
      {"smiles": "Cc1ccc(Nc2ncc(C)c(-c3c[nH]c(C(=O)N[C@H](CO)c4cccc(C)c4)c3)n2)cc1", "note": "[erk000586]", "Ki": "0.002 µM"},
      {"smiles": "CCNc1ncc(C)c(-c2c[nH]c(C(=O)NCc3ccc(O)c(O)c3)c2)n1", "note": "[erk000485]", "Ki": "0.427 µM"},
      {"smiles": "Cc1cnc(Nc2cccc3c2CCC3)nc1-c1c[nH]c(C(=O)N[C@H](CO)c2ccccc2)c1", "note": "[erk000556]", "Ki": "0.003 µM"},
      {"smiles": "Cc1cnc(N)nc1-c1c[nH]c(C(=O)NCc2cccc(F)c2)c1", "note": "[erk000626]", "Ki": "1.26 µM"},
      {"smiles": "CCNc1ncc(C)c(-c2c[nH]c(C(=O)N[C@@H](CO)c3cccc(F)c3)c2)n1", "note": "[erk000479]", "Ki": "0.009 µM"},
      {"smiles": "Cc1cnc(N[C@H](CO)c2ccccc2)nc1-c1c[nH]c(C(=O)N[C@H](CO)c2ccccc2)c1", "note": "[erk000445]", "Ki": "0.001 µM"},
      {"smiles": "CC(=O)OC[C@@H](NC(=O)c1cc(-c2nc(Nc3ccccc3)ncc2C)c[nH]1)c1ccccc1", "note": "[erk000646]", "Ki": "0.038 µM"},
      {"smiles": "Cc1onc(-c2ccccc2)c1-c1ccnc(NC2CCC(O)CC2)n1", "note": "(stereo unspecified) [erk000075]", "Ki": "1 µM"},
      {"smiles": "Cc1cnc(N)nc1-c1cc(C(=O)N[C@H](CO)c2ccccc2)n(Cc2ccccc2)c1", "note": "[erk000319]", "Ki": "3.98 µM"},
      {"smiles": "CCNc1ncc(C)c(-c2c[nH]c(C(=O)NCc3cccc(C(F)(F)F)c3)c2)n1", "note": "[erk000062]", "Ki": "0.141 µM"},
      {"smiles": "Cc1cnc(Nc2cccc3c2OC(F)(F)O3)nc1-c1c[nH]c(C(=O)N[C@H](CO)c2ccccc2)c1", "note": "[erk000591]", "Ki": "0.008 µM"},
      {"smiles": "Cc1cnc(N[C@@H](C)CO)nc1-c1cc(C(=O)N[C@H](CO)c2ccccc2)n(C)c1", "note": "[erk000706]", "Ki": "0.006 µM"},
      {"smiles": "Cc1cccc([C@@H](CO)NC(=O)c2cc(-c3nc(NOCC(F)(F)F)ncc3C)c[nH]2)c1", "note": "[erk000625]", "Ki": "0.004 µM"},
      {"smiles": "Cc1cccc([C@@H](CO)NC(=O)c2cc(-c3nc(NC4CCCCC4)ncc3C)c[nH]2)c1", "note": "[erk000642]", "Ki": "0.012 µM"},
      {"smiles": "CCNc1ncc(C)c(-c2c[nH]c(C(=O)N[C@H](CO)c3cccc(C)c3)c2)n1", "note": "[erk000634]", "Ki": "0.004 µM"},
      {"smiles": "Cc1cnc(N)nc1-c1c[nH]c(C(=O)NCc2ccccc2F)c1", "note": "[erk000311]", "Ki": "4.79 µM"},
      {"smiles": "Cc1cnc(Nc2cccc(F)c2C)nc1-c1c[nH]c(C(=O)N[C@H](CO)c2ccccc2)c1", "note": "[erk000538]", "Ki": "0.002 µM"},
      {"smiles": "Cc1cnc(N[C@@H]2CCC[C@H](C)[C@@H]2C)nc1-c1c[nH]c(C(=O)N[C@H](CO)c2cccc(Cl)c2)c1", "note": "[erk000606]", "Ki": "0.013 µM"},
      {"smiles": "Cc1cnc(NCCN2CCOCC2)nc1-c1c[nH]c(C(=O)N[C@H](CO)c2ccccc2)c1", "note": "[erk000519]", "Ki": "0.12 µM"},
      {"smiles": "O=C(c1cc(-c2n[nH]cc2-c2cc(Cl)cc(Cl)c2)c[nH]1)N1CCOCC1", "note": "[erk000124]", "Ki": "0.813 µM"},
      {"smiles": "Fc1ccc(-c2n[nH]cc2-c2ccnc(NC3CCCCC3)c2)cc1", "note": "[erk000125]", "Ki": "2.57 µM"},
      {"smiles": "Cc1ccc(Nc2ncc(C)c(-c3c[nH]c(C(=O)N[C@H](CO)c4ccccc4)c3)n2)c(C)c1", "note": "[erk000653]", "Ki": "0.003 µM"},
      {"smiles": "CCSc1ncc(C)c(-c2c[nH]c(C(=O)N[C@H](CO)c3ccccc3)c2)n1", "note": "[erk000544]", "Ki": "0.065 µM"},
      {"smiles": "N#Cc1c(NCCN2CCCCC2)sc(-c2ccnc(Nc3cccc(O)c3)n2)c1-c1cccc(Cl)c1", "note": "[erk000594]", "Ki": "0.027 µM"},
      {"smiles": "CC(=O)OC[C@H](C)Nc1ncc(C)c(-c2c[nH]c(C(=O)N[C@H](COC(C)=O)c3cccc(Cl)c3)c2)n1", "note": "[erk000682]", "Ki": "0.331 µM"},
      {"smiles": "Cc1cnc(Nc2ccc(OC(F)(F)F)cc2)nc1-c1c[nH]c(C(=O)N[C@H](CO)c2ccccc2)c1", "note": "[erk000447]", "Ki": "0.002 µM"},
      {"smiles": "Cc1cnc(NCCc2ccccc2)nc1-c1c[nH]c(C(=O)N[C@H](CO)c2ccccc2)c1", "note": "[erk000578]", "Ki": "0.007 µM"},
      {"smiles": "Cc1cnc(Nc2ccccc2C#N)nc1-c1c[nH]c(C(=O)N[C@H](CO)c2ccccc2)c1", "note": "[erk000533]", "Ki": "2 µM"},
      {"smiles": "CCNc1ncc(C)c(-c2c[nH]c(C(=O)NCc3ccccc3)c2)n1", "note": "[erk000047]", "Ki": "0.089 µM"},
      {"smiles": "Cc1cnc(Nc2cccc(C(F)(F)F)c2)nc1-c1c[nH]c(C(=O)N[C@H](CO)c2ccccc2)c1", "note": "[erk000438]", "Ki": "0.002 µM"},
      {"smiles": "CC[C@@H](CO)Nc1ncc(C)c(-c2c[nH]c(C(=O)N[C@H](COC(=O)OC(C)C)c3cccc(Cl)c3)c2)n1", "note": "[erk000693]", "Ki": "0.037 µM"},
      {"smiles": "O=C(c1cc(-c2ccnc(Nc3ccccc3)n2)c[nH]1)N1CCc2ccccc2C1", "note": "[erk000057]", "Ki": "0.525 µM"},
      {"smiles": "CCOC(=O)NNc1ncc(C)c(-c2c[nH]c(C(=O)N[C@H](CO)c3ccccc3)c2)n1", "note": "[erk000498]", "Ki": "0.646 µM"},
      {"smiles": "CCNc1ncc(C)c(-c2c[nH]c(C(=O)N[C@H](CO)c3cccc(Cl)c3)c2)n1", "note": "[erk000635]", "Ki": "0.004 µM"},
      {"smiles": "Cc1cnc(Nc2ccccc2)nc1-c1c[nH]c(C(=O)N[C@H](CO)c2ccccc2)c1", "note": "[erk000040]", "Ki": "0.004 µM"},
      {"smiles": "Nc1nccc(-c2c[nH]c(C(=O)N[C@H](CO)c3ccccc3)c2)n1", "note": "[erk000067]", "Ki": "0.324 µM"},
      {"smiles": "Cc1cnc(N[C@H](C)C(C)C)nc1-c1c[nH]c(C(=O)N[C@H](CO)c2cccc(Cl)c2)c1", "note": "[erk000607]", "Ki": "0.001 µM"},
      {"smiles": "CCOP(=O)(OCC)OC[C@H](CC)Nc1ncc(C)c(-c2c[nH]c(C(=O)N[C@H](CO)c3cccc(Cl)c3)c2)n1", "note": "[erk000690]", "Ki": "1.1 µM"},
      {"smiles": "CC[C@@H](COC(C)=O)Nc1ncc(C)c(-c2c[nH]c(C(=O)N[C@H](CO)c3cccc(Cl)c3)c2)n1", "note": "[erk000666]", "Ki": "0.006 µM"},
      {"smiles": "Cc1cnc(N[C@H]2CCOC2)nc1-c1c[nH]c(C(=O)N[C@H](CO)c2cccc(Cl)c2)c1", "note": "[erk000631]", "Ki": "0.209 µM"},
      {"smiles": "CC(=O)Nc1ncc(C)c(-c2c[nH]c(C(=O)N[C@H](CO)c3ccccc3)c2)n1", "note": "[erk000496]", "Ki": "0.032 µM"},
      {"smiles": "CC(C)Nc1cc(-c2c[nH]c(C(=O)N[C@H](CO)c3cccc(Cl)c3)c2)ncn1", "note": "[erk000672]", "Ki": "0.03 µM"},
      {"smiles": "CCOC(=O)OC[C@H](CC)Nc1ncc(C)c(-c2c[nH]c(C(=O)N[C@H](CO)c3cccc(Cl)c3)c2)n1", "note": "[erk000669]", "Ki": "0.027 µM"},
      {"smiles": "CCNc1ncc(C)c(-c2c[nH]c(C(=O)N[C@H](CO)c3ccccc3)c2)n1", "note": "[erk000041]", "Ki": "0.003 µM"},
      {"smiles": "Nc1nccc(-c2c[nH]c(C(=O)NCc3cccc(Cl)c3)c2)n1", "note": "[erk000664]", "Ki": "0.525 µM"},
      {"smiles": "CC[C@@H](COC(=O)CCC(=O)O)Nc1ncc(C)c(-c2c[nH]c(C(=O)N[C@H](COC(=O)CCC(=O)O)c3cccc(Cl)c3)c2)n1", "note": "[erk000713]", "Ki": "0.117 µM"},
      {"smiles": "CC[C@@H](COC(C)=O)Nc1ncc(C)c(-c2c[nH]c(C(=O)N[C@H](COC(C)=O)c3cccc(Cl)c3)c2)n1", "note": "[erk000620]", "Ki": "0.229 µM"},
      {"smiles": "CC[C@@H](COC)Nc1ncc(C)c(-c2c[nH]c(C(=O)N[C@H](CO)c3ccccc3)c2)n1", "note": "[erk000549]", "Ki": "0.027 µM"},
      {"smiles": "Cc1cnc(N)nc1-c1c[nH]c(C(=O)NCc2c(Cl)cccc2Cl)c1", "note": "[erk000627]", "Ki": "0.324 µM"},
      {"smiles": "CCNc1ncc(C)c(-c2c[nH]c(C(=O)N[C@@H](C(C)=O)c3ccccc3)c2)n1", "note": "[erk000489]", "Ki": "1.91 µM"},
      {"smiles": "Cc1cnc(NCC2CCOCC2)nc1-c1c[nH]c(C(=O)N[C@H](CO)c2ccccc2)c1", "note": "[erk000638]", "Ki": "0.017 µM"},
      {"smiles": "Cc1cc(C)cc(Nc2ncc(C)c(-c3c[nH]c(C(=O)N[C@H](CO)c4ccccc4)c3)n2)c1", "note": "[erk000566]", "Ki": "0.003 µM"},
      {"smiles": "Cc1cnc(N)nc1-c1c[nH]c(C(=O)NCc2ccc(Cl)cc2Cl)c1", "note": "[erk000055]", "Ki": "6.76 µM"},
      {"smiles": "CC[C@@H](COP(=O)(O)O)Nc1ncc(C)c(-c2c[nH]c(C(=O)N[C@H](CO)c3cccc(Cl)c3)c2)n1", "note": "[erk000722]", "Ki": "0.417 µM"}
    ]}
  ]
}
